Data set [1] can be described thus: physchem. The settings on record: 20 °C.
Data set [2] has as its system cyanide toxicity. The settings on record: mouse, in vivo; cited from earlier work.
Data set [3] has as its system cyanide toxicity. Conditions: in vivo; cited from earlier work.
For data set [4] the following is noted: rabbit, in vivo.

The source of these data is patent US9757354B2 (priority 2015, dated 2017).

Converted amounts (≈) assume the structure as drawn. Like-named read-outs stand apart in the source and are kept apart here.

What is called solubility is how much of the substance goes into solution per volume. A lower solubility goes with a poorly soluble substance. With `O=C(O)C1(O)CSC(O)(C(=O)O)CS1` (stereo not shown) [Compound 2, 2,5-dihydroxy-1,4-dithiane-2,5-dicarboxylic acid], the solubility in data set [1] came to 200 mM (≈ 48.1 mg/mL). Consider `O.O.O.O.O=C(O)C1(O)CSC(O)(C(=O)O)CS1.[Na].[Na]` (stereo not shown) [Compound 3a, disodium 2,5-dihydroxy-1,4-dithiane-2,5-dicarboxylic acid tetrahydrate], for which the rescue entry in data set [2] and in data set [3] was “highly effective” in each case.

Turning to `O=C([O-])C1(O)CSC(O)(C(=O)[O-])CS1.[Li+].[Li+]` (stereo not shown) [Compound 3b, Dilithium 2,5-Dihydroxy-1,4-dithiane-2,5-dicarboxylate], the solubility in data set [1] stood at 1050 mM. The same measure, in the same setting: then `O=C([O-])C1(O)CSC(O)(C(=O)[O-])CS1.[K+].[K+]` (stereo not shown) [Compound 3c, Dipotassium 2,5-Dihydroxy-1,4-dithiane-2,5-dicarboxylate], with 570 mM.

Regarding `NCCCC[C@H](N)C(=O)O.NCCCC[C@H](N)C(=O)O.O=C(O)C1(O)CSC(O)(C(=O)O)CS1` (stereo not shown) [lysine salt], in data set [4], the “absorption of the antidote” value is “poor absorption” and the tolerability of injection result is “poorly tolerated”.
